Data taken from patent US12577248B2, “Substituted [1,2,4]triazolo[1,5-a]pyrazines as spleen tyrosine kinase inhibitors” (NANJING RUIJIE PHARMA CO., LTD., priority 2020, dated 2026).

These compounds were tested against SYK kinase (Homo sapiens, UniProt P43405) (assay: SYK kinase assay (HTRF KinEASE-TK)). Details: class symbols, read-out: Syk inhibition IC50.
Assay type: biochemical
Experimental: A homogeneous time-resolved fluorescence (HTRF) assay was performed to assess the potential inhibitory effect of compounds on SYK kinase. The HTRF KinEASE-TK kit (Cisbio) was used. During the step, kinase will phosphorylate the substrate, and the resulting fluorescence signal is proportional to the phosphorylation level. The assay was performed in the following steps: First, the testing compounds were diluted 1:3 in succession in DMSO. The 1× kinase buffer contained 1 volume of 5× enzymatic buffer with 4 volumes of distilled water, 5 mM MgCl2, 1 mM MnCl2, and 1 mM DTT. The assays were assembled in 384 well plates (784075, Greiner) where 10 nl of compound solutions were added into each well, and the plates were centrifuged at 1000 g for 1 min. Then, 5 μl of 2×SYK in 1× kinase buffer were added to each well. The plates were centrifuged at 1000 g for 30 s and then incubated at room temperature for 10 min. The reaction was initiated by adding […] of premixed 2×TK-substrate-biotin and ATP mixture in 1× kinase buffer to the assay plates. The plates were centrifuged at 1000 g for 30 s and incubated at room temperature for 30 min. Phosphorylation was detected by adding 5 μl of 4×Sa-XL 665 in HTRF detection buffer into each well of the assay plates. The plates were centrifuged plates at 1000 g for 30 sec, and then incubated at room temperature for 1 h. Finally, the plates were read on an Envision 2104 plate reader (PerkinElmer) and the fluorescence signal was measured at 615 nm (Cryptate) and 665 nm (XL665).
A ratio (665/615 nm) was calculated for each well. The inhibition ratio was calculated as follow: […]
IC50 was calculated by fitting % Inhibition values and log of compound concentrations to nonlinear regression (dose response−variable slope) with GraphPad 6.0.
Work on COc1cc(Nc2nc(-c3ccc4cn[nH]c4c3)cn3ncnc23)cc(OC)c1OC [I4, 6-(1H-indazol-6-yl)-N-(3,4,5-trimethoxyphenyl)-[1,2,4]triazolo[1,5-a]pyrazin-8-amine] yielded an IC50 of 50 to 500 nM.
Compound NC(=O)c1ccc(-c2cn3ncnc3c(Nc3ccc(N4CCOCC4)cc3)n2)cc1 [I5, 4-(8-((4-morpholinophenyl)amino)-[1,2,4]triazolo[1,5-a]pyrazin-6-yl)benzamide] has an IC50 of 50 to 500 nM.
For NC(=O)c1cccc(-c2cn3ncnc3c(Nc3ccc(N4CCOCC4)cc3)n2)c1 [I6, 3-(8-((4-morpholinophenyl)amino)-[1,2,4]triazolo[1,5-a]pyrazin-6-yl)benzamide], the IC50 was 50 to 500 nM.
In the case of COc1cc(Nc2nc(-c3ccc4cn[nH]c4c3)cn3ncnc23)ccc1N1CCN(CC(F)(F)F)CC1 [I8, 6-(1H-indazol-6-yl)-N-(3-methoxy-4-(4-(2,2,2-trifluoroethyl)piperazin-1-yl)phenyl)-[1,2,4]triazolo[1,5-a]pyrazin-8-amine], the IC50 is reported as ≤ 50 nM.
With CN1CCN(c2ccc(Nc3nc(-c4ccc5cn[nH]c5c4)cn4ncnc34)cc2)CC1 [I11, 6-(1H-indazol-6-yl)-N-(4-(4-methylpiperazin-1-yl)phenyl)-[1,2,4]triazolo[1,5-a]pyrazin-8-amine] the IC50 was ≤ 50 nM.
With CCS(=O)(=O)N1CCN(c2ccc(Nc3nc(-c4ccc5cn[nH]c5c4)cn4ncnc34)cc2OC)CC1 [I13, N-(4-(4-(ethylsulfonyl)piperazin-1-yl)-3-methoxyphenyl)-6-(1H-indazol-6-yl)-[1,2,4]triazolo[1,5-a]pyrazin-8-amine] the IC50 was ≤ 50 nM.
In the case of CCS(=O)(=O)N1CCN(c2ccc(Nc3nc(-c4ccc5cn[nH]c5c4)cn4ncnc34)cc2)CC1 [I14, N-(4-(4-(ethylsulfonyl)piperazin-1-yl)phenyl)-6-(1H-indazol-6-yl)-[1,2,4]triazolo[1,5-a]pyrazin-8-amine], the IC50 is reported as ≤ 50 nM.
COc1cc(Nc2nc(-c3ccc4cn[nH]c4c3)cn3ncnc23)ccc1N1CCN(CCO)CC1 [I15, 2-(4-(4-((6-(1H-indazol-6-yl)-[1,2,4]triazolo[1,5-a]pyrazin-8-yl)amino)-2-methoxyphenyl)piperazin-1-yl)ethan-1-ol] was tested, and the IC50 was ≤ 50 nM.
For COc1cc(Nc2nc(-c3ccc4cn[nH]c4c3)cn3ncnc23)ccc1N1CCN(C2CC2)CC1 [I19, N-(4-(4-cyclopropylpiperazin-1-yl)-3-methoxyphenyl)-6-(1H-indazol-6-yl)-[1,2,4]triazolo[1,5-a]pyrazin-8-amine], the IC50 was ≤ 50 nM.
FC(F)(F)Oc1cc(Nc2nc(-c3ccc4cn[nH]c4c3)cn3ncnc23)ccc1N1CCOCC1 [I20, 6-(1H-indazol-6-yl)-N-(4-morpholino-3-(trifluoromethoxy)phenyl)-[1,2,4]triazolo[1,5-a]pyrazin-8-amine] was tested, and the IC50 was 50 to 500 nM.
CC1(C)Oc2cc(-c3cn4ncnc4c(Nc4ccc(N5CCOCC5)cc4)n3)ccc2NC1=O [I27, 2,2-dimethyl-7-(8-((4-morpholinophenyl)amino)-[1,2,4]triazolo[1,5-a]pyrazin-6-yl)-2H-benzo[b][1,4]oxazin-3(4H)-one] gave an IC50 of 50 to 500 nM.
With COc1cc(Nc2nc(-c3cnc4c(c3)OCC(=O)N4)cn3ncnc23)ccc1N1CCOCC1 [I30, 7-(8-((3-methoxy-4-morpholinophenyl)amino)-[1,2,4]triazolo[1,5-a]pyrazin-6-yl)-2H-pyrido[3,2-b][1,4]oxazin-3(4H)-one] the IC50 was 50 to 500 nM.
In the case of O=C1COc2cc(-c3cn4ncnc4c(Nc4ccc(N5CCOCC5)cc4)n3)cnc2N1 [I31, 7-(8-((4-morpholinophenyl)amino)-[1,2,4]triazolo[1,5-a]pyrazin-6-yl)-2H-pyrido[3,2-b][1,4]oxazin-3(4H)-one], the IC50 is reported as 50 to 500 nM.
With COc1cc(Nc2nc(-c3cnc4c(c3)OC(C)(C)C(=O)N4)cn3ncnc23)ccc1N1CCOCC1 [I32, 7-(8-((3-methoxy-4-morpholinophenyl)amino)-[1,2,4]triazolo[1,5-a]pyrazin-6-yl)-2,2-dimethyl-2H-pyrido[3,2-b][1,4]oxazin-3(4H)-one] the IC50 was 50 to 500 nM.
